Laboratory results reported in patent EP0726261A1, “Herbidical 1,2,4 thiadiazoles” (American Cyanamid Company, priority 1995, dated 1996).

Legend:
Assay type in all cases: in vivo
[1] = system: Chenopodium album; experiment: Preemergence herbicidal activity (Example 67); conditions: pre, 800 g/ha; for herbicide rating, CHEAL: rated about 1-3 weeks after treatment
Protocol: (§1) Herbicidal evaluation of compounds of the invention is conducted on the following plant species:
(§2) The soil is a prepared horticultural substrate containing 30% peat, 20% volcanic clay, 30% bark residues and 20% polyamide/styromull in a 1:3 mixture with loamy sand. Test solutions are prepared by dissolving the test compound in acetone containing 0.5% of an alkylphenol/ethylene oxide condensate under the trademark, TRITON® X-155, and diluting with water as needed. The test solutions are applied as a spray to the 3-6 week old seedling plants at dose rates corresponding to 800g/ha in a volume equivalent to 400 L/ha. A pneumatic spraying device employing a Teejet nozzle SS 8002E operating at 3 bar is used for a predetermined time. After spraying, the treated plants are placed on greenhouse benches and cared for in a manner commensurate with conventional greenhouse practice. After 10-21 days, the treated plants are evaluated and rated according to the rating system provided below.
(§3) The soil surface is then sprayed with test solutions as described in the postemergence evaluation hereinabove. After spraying, the treated cups are placed on greenhouse benches and cared for in the manner commensurate with conventional greenhouse practice. About 1-3 weeks after treatment the cups are evaluated and rated according to the rating system provided hereinabove.

[2] = system: Zea mays; experiment: Preemergence herbicidal activity (Example 67); conditions: pre, 800 g/ha; for herbicide rating, ZEAMX: rated about 1-3 weeks after treatment
Protocol: as §1, §2, §3

[3] = system: Abutilon theophrasti; experiment: Preemergence herbicidal activity (Example 67); conditions: pre, 800 g/ha; for herbicide rating, ABUTH: rated about 1-3 weeks after treatment
Protocol: as §1, §2, §3

[4] = system: Veronica persica; experiment: Preemergence herbicidal activity (Example 67); conditions: pre, 800 g/ha; for herbicide rating, VERPE: rated about 1-3 weeks after treatment
Protocol: as §1, §2, §3

[5] = system: Galium aparine; experiment: Preemergence herbicidal activity (Example 67); conditions: pre, 800 g/ha; for herbicide rating, GALAP: rated about 1-3 weeks after treatment
Protocol: as §1, §2, §3

[6] = system: Amaranthus retroflexus; experiment: Preemergence herbicidal activity (Example 67); conditions: pre, 800 g/ha; for herbicide rating, AMARE: rated about 1-3 weeks after treatment
Protocol: as §1, §2, §3

[7] = system: Helianthus annuus; experiment: Preemergence herbicidal activity (Example 67); conditions: pre, 800 g/ha; for herbicide rating, HELAN: rated about 1-3 weeks after treatment
Protocol: as §1, §2, §3

[8] = system: Ipomoea hederacea; experiment: Preemergence herbicidal activity (Example 67); conditions: pre, 800 g/ha; for herbicide rating, IPOHE: rated about 1-3 weeks after treatment
Protocol: as §1, §2, §3

[9] = system: Setaria viridis; experiment: Preemergence herbicidal activity (Example 67); set-up: herbicide rating, SETVI: scale not given here; conditions: pre, 800 g/ha; for herbicide rating, SETVI: rated about 1-3 weeks after treatment
Protocol: as §1, §2, §3

[10] = system: Triticum aestivum; experiment: Preemergence herbicidal activity (Example 67); set-up: herbicide rating, TRZAW: scale not given here; conditions: pre, 800 g/ha; for herbicide rating, TRZAW: rated about 1-3 weeks after treatment
Protocol: as §1, §2, §3

[11] = system: Alopecurus myosuroides; experiment: Preemergence herbicidal activity (Example 67); set-up: herbicide rating, ALOMY: scale not given here; conditions: pre, 800 g/ha; for herbicide rating, ALOMY: rated about 1-3 weeks after treatment
Protocol: as §1, §2, §3

[12] = system: Hordeum vulgare; experiment: Postemergence herbicidal activity (Example 67); conditions: pos, 800 g/ha; for herbicide rating, HORVW: rated after 10-21 days
Protocol: as §1, §2

[13] = system: Chenopodium album; experiment: Postemergence herbicidal activity (Example 67); conditions: pos, 800 g/ha; for herbicide rating, CHEAL: rated after 10-21 days
Protocol: as §1, §2

[14] = system: Zea mays; experiment: Postemergence herbicidal activity (Example 67); conditions: pos, 800 g/ha; for herbicide rating, ZEAMX: rated after 10-21 days
Protocol: as §1, §2

[15] = system: Abutilon theophrasti; experiment: Postemergence herbicidal activity (Example 67); conditions: pos, 800 g/ha; for herbicide rating, ABUTH: rated after 10-21 days
Protocol: as §1, §2

[16] = system: Veronica persica; experiment: Postemergence herbicidal activity (Example 67); conditions: pos, 800 g/ha; for herbicide rating, VERPE: rated after 10-21 days
Protocol: as §1, §2

[17] = system: Setaria viridis; experiment: Postemergence herbicidal activity (Example 67); conditions: pos, 800 g/ha; for herbicide rating, SETVI: rated after 10-21 days
Protocol: as §1, §2

[18] = system: Galium aparine; experiment: Postemergence herbicidal activity (Example 67); conditions: pos, 800 g/ha; for herbicide rating, GALAP: rated after 10-21 days
Protocol: as §1, §2

[19] = system: Triticum aestivum; experiment: Postemergence herbicidal activity (Example 67); conditions: pos, 800 g/ha; for herbicide rating, TRZAW: rated after 10-21 days
Protocol: as §1, §2

[20] = system: Amaranthus retroflexus; experiment: Postemergence herbicidal activity (Example 67); conditions: pos, 800 g/ha; for herbicide rating, AMARE: rated after 10-21 days
Protocol: as §1, §2

[21] = system: Alopecurus myosuroides; experiment: Postemergence herbicidal activity (Example 67); conditions: pos, 800 g/ha; for herbicide rating, ALOMY: rated after 10-21 days
Protocol: as §1, §2

[22] = system: Helianthus annuus; experiment: Postemergence herbicidal activity (Example 67); conditions: pos, 800 g/ha; for herbicide rating, HELAN: rated after 10-21 days
Protocol: as §1, §2

[23] = system: Ipomoea hederacea; experiment: Postemergence herbicidal activity (Example 67); conditions: pos, 800 g/ha; for herbicide rating, IPOHE: rated after 10-21 days
Protocol: as §1, §2

[24] = system: Hordeum vulgare; experiment: Preemergence herbicidal activity (Example 67); set-up: herbicide rating, HORVW: scale not given here; conditions: pre, 800 g/ha; for herbicide rating, HORVW: rated about 1-3 weeks after treatment
Protocol: as §1, §2, §3

CCCCc1nsc(C(=O)N[C@@H](C)c2ccccc2)n1 [Example 32]
2 (6-15%): herbicide rating, HORVW [12] | herbicide rating, ALOMY [21]
6 (65-79%): herbicide rating, GALAP [18]
0: herbicide rating, ZEAMX [2] | herbicide rating, ABUTH [3] | herbicide rating, GALAP [5] | herbicide rating, AMARE [6] | herbicide rating, HELAN [7] | herbicide rating, IPOHE [8] | herbicide rating, SETVI [9] | herbicide rating, TRZAW [10] | herbicide rating, ALOMY [11] | herbicide rating, ZEAMX [14] | herbicide rating, VERPE [16] | herbicide rating, HORVW [24]
3 (16-29%): herbicide rating, TRZAW [19] | herbicide rating, AMARE [20]
5 (45-64%): herbicide rating, CHEAL [1] | herbicide rating, VERPE [4] | herbicide rating, CHEAL [13] | herbicide rating, ABUTH [15] | herbicide rating, HELAN [22] | herbicide rating, IPOHE [23]
7 (80-90%): herbicide rating, SETVI [17]

Cc1ccc(-c2nc(C(=O)NC(C)c3cccs3)ns2)cc1 (racemic) [Example 41]
4 (30-44%): ZEA MX rating [2]
0: ABU TH rating [3] | GAL AP rating [5] | AMA RE rating [6] | HEL AN rating [7] | IPO HE rating [8] | SET VI rating [9] | TRZ AW rating [10] | ALO MY rating [11] | VER PE rating [16] | HOR VW rating [24]
3 (16-29%): CHE AL rating [1] | VER PE rating [4] | GAL AP rating [18] | AMA RE rating [20] | IPO HE rating [23]
5 (45-64%): CHE AL rating [13] | HEL AN rating [22]
1 (1-5%): ABU TH rating [15]
8 (91-99%): SET VI rating [17]
2 (6-15%): HOR VW rating [12] | ZEA MX rating [14] | TRZ AW rating [19] | ALO MY rating [21]

O=C(NCc1cccs1)c1nc(C=Cc2ccccc2)ns1 [Example 28]
0: herbicide rating, CHEAL [1] | herbicide rating, ZEAMX [2] | herbicide rating, ABUTH [3] | herbicide rating, VERPE [4] | herbicide rating, GALAP [5] | herbicide rating, AMARE [6] | herbicide rating, HELAN [7] | herbicide rating, IPOHE [8] | herbicide rating, SETVI [9] | herbicide rating, TRZAW [10] | herbicide rating, ALOMY [11] | herbicide rating, HORVW [12] | herbicide rating, ZEAMX [14] | herbicide rating, GALAP [18] | herbicide rating, TRZAW [19] | herbicide rating, AMARE [20] | herbicide rating, HELAN [22] | herbicide rating, IPOHE [23] | herbicide rating, HORVW [24]
2 (6-15%): herbicide rating, CHEAL [13] | herbicide rating, VERPE [16]
3 (16-29%): herbicide rating, SETVI [17]
1 (1-5%): herbicide rating, ABUTH [15] | herbicide rating, ALOMY [21]

C[C@H](NC(=O)c1nc(C=Cc2ccccc2)ns1)c1ccccc1 [Example 30]
0: herbicide rating, CHEAL [1] | herbicide rating, ZEAMX [2] | herbicide rating, VERPE [4] | herbicide rating, GALAP [5] | herbicide rating, AMARE [6] | herbicide rating, HELAN [7] | herbicide rating, IPOHE [8] | herbicide rating, SETVI [9] | herbicide rating, TRZAW [10] | herbicide rating, ALOMY [11] | herbicide rating, HORVW [12] | herbicide rating, ZEAMX [14] | herbicide rating, VERPE [16] | herbicide rating, HORVW [24]
3 (16-29%): herbicide rating, ABUTH [15] | herbicide rating, SETVI [17]
1 (1-5%): herbicide rating, ALOMY [21]
4 (30-44%): herbicide rating, CHEAL [13] | herbicide rating, GALAP [18] | herbicide rating, IPOHE [23]
2 (6-15%): herbicide rating, ABUTH [3] | herbicide rating, TRZAW [19] | herbicide rating, AMARE [20] | herbicide rating, HELAN [22]

C[C@H](NC(=O)c1nsc(-c2ccc(F)cc2)n1)c1ccccc1 [Example 40, (S)-5-(4-Fluorophenyl)-[1,2,4]thiadiazole-3-carboxylic acid, 1-(phenylethyl)amide]
0: ZEA MX rating [2] | GAL AP rating [5] | AMA RE rating [6] | IPO HE rating [8] | TRZ AW rating [10] | ALO MY rating [11] | HOR VW rating [24]
6 (65-79%): HOR VW rating [12]
9 (100% effect): SET VI rating [17] | HEL AN rating [22]
4 (30-44%): CHE AL rating [1] | HEL AN rating [7] | SET VI rating [9] | TRZ AW rating [19]
5 (45-64%): VER PE rating [4] | ZEA MX rating [14] | ALO MY rating [21]
8 (91-99%): ABU TH rating [3] | CHE AL rating [13] | ABU TH rating [15] | VER PE rating [16] | GAL AP rating [18] | AMA RE rating [20] | IPO HE rating [23]

C[C@H](NC(=O)c1nc(-c2c(F)cccc2F)ns1)c1ccccc1 [Example 59, (S)-3-(2,6-Difluorophenyl)-[1,2,4]thiadiazole-5-carboxylic acid, 1-(phenylethyl)amide]
7 (80-90%): CHE AL rating [13]
8 (91-99%): VER PE rating [16] | AMA RE rating [20]
0: CHE AL rating [1] | ZEA MX rating [2] | HEL AN rating [7] | TRZ AW rating [10] | ZEA MX rating [14] | HOR VW rating [24]
6 (65-79%): VER PE rating [4] | GAL AP rating [18] | HEL AN rating [22]
3 (16-29%): GAL AP rating [5] | AMA RE rating [6] | SET VI rating [9] | HOR VW rating [12] | SET VI rating [17] | TRZ AW rating [19]

O=C(NCc1cccs1)c1nc(-c2c(F)cccc2F)ns1 [Example 60]
5 (45-64%): AMA RE rating [20]
3 (16-29%): ZEA MX rating [14] | HEL AN rating [22]
0: CHE AL rating [1] | ZEA MX rating [2] | VER PE rating [4] | GAL AP rating [5] | AMA RE rating [6] | HEL AN rating [7] | SET VI rating [9] | TRZ AW rating [10] | HOR VW rating [12] | CHE AL rating [13] | VER PE rating [16] | SET VI rating [17] | GAL AP rating [18] | TRZ AW rating [19] | HOR VW rating [24]

CC(NC(=O)c1nc(-c2c(F)cccc2F)ns1)c1cccs1 (racemic) [Example 58, (R/S)-3-(2,6-Difluorophenyl)-[1,2,4]thiadiazole-5-carboxylic acid, [1-(2-thienyl)ethyl]amide]
3 (16-29%): HOR VW rating [12]
6 (65-79%): CHE AL rating [13] | GAL AP rating [18]
9 (100% effect): HEL AN rating [22]
7 (80-90%): AMA RE rating [20]
0: CHE AL rating [1] | ZEA MX rating [2] | VER PE rating [4] | GAL AP rating [5] | AMA RE rating [6] | HEL AN rating [7] | SET VI rating [9] | TRZ AW rating [10] | ZEA MX rating [14] | HOR VW rating [24]
4 (30-44%): VER PE rating [16]
2 (6-15%): SET VI rating [17] | TRZ AW rating [19]

COc1ccc(-c2nsc(C(=O)NC(C)c3ccsc3)n2)cc1 (racemic) [Example 61]
0: ZEA MX rating [2] | ABU TH rating [3] | VER PE rating [4] | GAL AP rating [5] | AMA RE rating [6] | HEL AN rating [7] | IPO HE rating [8] | SET VI rating [9] | TRZ AW rating [10] | ALO MY rating [11] | HOR VW rating [12] | ZEA MX rating [14] | ABU TH rating [15] | VER PE rating [16] | SET VI rating [17] | GAL AP rating [18] | TRZ AW rating [19] | AMA RE rating [20] | IPO HE rating [23] | HOR VW rating [24]
2 (6-15%): HEL AN rating [22]
1 (1-5%): ALO MY rating [21]
